Reference: patent US11253594B2, “Drug combinations for protecting against neuronal cell death” (UNIVERSITY OF PITTSBURGH-OF THE COMMONWEALTH SYSTEM OF …, priority 2017, dated 2022)

System: STHdh^Q111 cells
Assay: 384-well PI (propidium iodide) assay, protection from mHTT induced cell death
Assay type: cell-based, mouse
Details: FIG. 10
Description: The well-established STHdh^Q111 cell model for HD was employed to identify compounds that can protect neuronal cells from mHTT-dependent cell death. […] The propidium iodide (PI) readout enables an unbiased assessment of cell death by measuring an irreversible step that is common to all cytotoxic mechanisms.
The stress conditions for testing compounds involved incubation of the cells in serum-free medium at 37° C. and 5% CO2.
Prior to compound treatment, medium was removed and the cells washed once with PBS (pH=7.4) after which 45 μl of complete medium was added. Compounds in 5 μl complete medium were added to cells. […] Compounds in serum free medium (5 μl) were added and cells were incubated at 37° C. and 5% CO2.
Image analysis was carried out using the Multiwavelength Cell Scoring application in the MetaXpress software. The nuclear compartment was identified in Ch1 with a threshold intensity of 2,000 above background and the Texas Red compartment was identified in Ch2 with a threshold intensity of 20,000 above background.
For the analyses presented here the Percent Recovery was calculated from the Percent PI positive cells by:
[formula] where positive controls are the STHdh^Q7 cells, and negative controls are the STHdh^Q111 cells treated with DMSO
The LOPAC library was screened in the 384-well PI assay at 30, 10, and 3 μM.

CCOc1ccc2nc(S(C)(=O)=O)sc2c1 [methyl sulfonyl analog of ETX, 6-ethoxy-2-(methylsulfonyl) benzo[d]thiazole]
efficacy relative to ethoxzolamide: equally efficacious
STHdh^Q111 cells protected (maximal protection): ~50%
potency in protecting STHdh^Q111 cells relative to ETX (propidium iodide assay): 7 fold
